Source: patent US20100331424A1, “Use of Axomadol for Treatment of Arthrosis Pain” (Gruenenthal GmbH, priority 2007, published 2010)
Counter-ions that a name gives are not always drawn.

Columns and labels:
[1] = system: moderate to severe chronic pain as a result of osteoarthritis (OA) of the knee; test: Clinical Study B: axomadol vs oxycodone CR and placebo, 4 weeks, patients with OA of the knee; assay type: in vivo; conditions: for p of primary endpoint compared to the placebo group: per protocol set
Experimental: In this study, patients with OA of the knee were divided into 4 groups. Two of the patient groups received different doses of axomadol hydrochloride: 100 mg and 150 mg based on the free base, twice daily in each case after a titration period of 2 weeks, in which the dose of axomadol was increased on a weekly basis. […] A further group was given a placebo twice daily.

[2] = system: moderate to severe chronic pain as a result of osteoarthritis (OA) of the hip or knee; test: Clinical Study A: axomadol vs tramadol and placebo, 4 weeks, patients with OA of the hip or knee; assay type: in vivo; conditions: for Decrease in pain intensity compared to baseline: full analysis set, day 29, axomadol 44, 66, 110 mg bid, tramadol 100 mg bid
Experimental: (§1) Two studies with a respective treatment period of 4 weeks were conducted to determine the efficacy and safety of axomadol in patients with moderate to severe chronic pain as a result of osteoarthritis (arthrosis, OA) of functional class I-III.
In this study, patients with OA of the hip or knee were divided into 5 groups.

[3] = system: moderate to severe chronic pain as a result of osteoarthritis (arthrosis, OA) of functional class I-III; test: Both clinical studies (A and B), statements made for both; assay type: in vivo, patients; conditions: after 4 weeks
Experimental: as §1

[4] = system: CFA-hyperalgesia (CFA-HA); test: Antihyperalgesic effect in the chronic inflammation pain model (Complete Freund's Adjuvant, electronic von Frey); assay type: in vivo, Sprague Dawley rats
Experimental: The test to determine the antihyperalgesic effect of axomadol in chronic inflammation pain was conducted on rats in the Complete Freund's Adjuvant animal model (CFA).
A model for chronic inflammation represents the monoarthritis triggered by the Complete Freund's Adjuvant (CFA). By injecting a small quantity of CFA (100 μg M. tuberculosis) into the back paw a local inflammatory reaction restricted in time to 2-4 weeks occurred.
Sprague Dawley rats from a commercial breeder (Janvier, Belgium) having a weight of 140-160 g were used as test animals. The CFA-HA was induced in rats by subplantar injection of CFA (100 μl of the 1 mg/ml mycobacteria (heat-killed M. tuberculosis)/oil suspension (IFA; Difco)) into the back paw (ipsilaterally). The injection day was defined as day 0 (d 0).
Hyperalgesia to a mechanical tactile stimulus was detected by means of an electronic von Frey measuring instrument (Somedic Electronic von Frey System, Somedic Sales AB, Horby, Sweden). The paw was stimulated by subplantar application. To quantify the sensitivity of both the ipsi- and the contralateral paw to the mechanical stimulus, the paw pull-away threshold was given in grams of applied pressure. The median was formed from the four measured values per paw. The pull-away threshold of the ipsi- and contralateral paw was determined on day 1 after CFA injection before (=initial value) and at different times (15, 20 and 60 minutes) after substance dose (measured value). The efficacy of a substance was calculated as % inhibition of hyperalgesia as follows:
% inhibition of HA=(1−HA measured value/HA initial value)×100
HA initial value=pull away threshold contralateral−pull away threshold ipsilateral before substance dose
HA measured value=pull away threshold contralateral−pull away threshold ipsilateral after substance dose
In total, 10 rats were used in each test animal group. The mean±SEM was calculated from the medians of the individual animals. The significance calculation was conducted using the two-factor analysis of the variance (ANOVA) for repeated measurements. In the case of a significant treatment effect, a comparison in pairs was conducted at different measurement times by a Fisher's significance test, followed by a post hoc Dunnett test. The results were assessed as statistically significant at p<0.05.
In order to determine the maximum efficacy, the substance was administered intravenously (IV) up to the maximum possible dose.

COc1cccc([C@@]2(O)C[C@H](O)CC[C@@H]2CN(C)C)c1 (racemic) [Axomadol, (1RS,3RS,6RS)-6-dimethylaminomethyl-1-(3-methoxyphenyl)-cyclohexane-1,3-diol]
Frequency of undesirable side-effects which caused patients to discontinue the study ([1]; 100 mg group): 16.3%
Frequency of undesirable side-effects which caused patients to discontinue the study ([1]; 150 mg group): 17.7%
Severity of undesirable effects ([1]; axomadol groups 100 mg and 150 mg twice daily): slight to moderate
p of average pain intensity of the last 24 hours on day 29 compared to the placebo ([1]; full analysis set, 100 mg twice daily): 0.0190
p of primary endpoint compared to the placebo group ([1]; 100 mg twice daily group): 0.0068
p of primary endpoint compared to the placebo group ([1]; 150 mg twice daily group): 0.0079
Decrease in pain intensity compared to baseline [2]: clinically relevant decrease in pain intensity
p of decrease in pain intensity compared to the placebo group ([2]; per protocol set, 110 mg twice daily): < 0.05
Decrease in pain intensity, dose dependence ([2]; per protocol set, axomadol 44, 66, 110 mg twice daily): higher efficacy at the higher dose
Decrease in pain intensity [3]: clinically significant decrease in pain intensity
Analgesic efficacy compared to morphine, oxycodone and tramadol (in words) ([4]; chronic inflammation pain model): better analgesic efficacy
Effect on CFA-induced hyperalgesia (in words) ([4]; rat): significantly reduces

COc1cccc([C@@]2(O)C[C@H](O)CC[C@@H]2CN(C)C)c1 (racemic) [Axomadol-HCl, (1RS,3RS,6RS)-6-dimethylaminomethyl-1-(3-methoxyphenyl)-cyclohexane-1,3-diol]
Instance of the most frequent undesirable effects vs every other treatment group ([2]; 110 mg twice daily): higher
Dose from which overlap with antinociceptive effect (comparators: also side-effects that impair measurement) ([4]; rat, IV): From 14.7 mg/kg: overlap with antinociceptive
% Inhibition of HA ([4]; rat, IV, dose 2.15 mg/kg): 16%
% Inhibition of HA ([4]; rat, IV, dose 10.0 mg/kg): 40%
% Inhibition of HA ([4]; rat, IV, dose 14.7 mg/kg): 9%
Antihyperalgesic effect at higher doses ([4]; rat, IV, doses higher than 10 mg/kg): 9%

CN1CC[C@]23c4c5ccc(O)c4O[C@H]2[C@@H](O)C=C[C@H]3[C@H]1C5 [Morphine]
Dose from which overlap with antinociceptive effect (comparators: also side-effects that impair measurement) ([4]; rat, IV): From 4.64 mg/kg: overlap with antinociceptive
% Inhibition of HA ([4]; rat, IV, dose 0.46 mg/kg): 8%
% Inhibition of HA ([4]; rat, IV, dose 1.00 mg/kg): 20%
% Inhibition of HA ([4]; rat, IV, dose 2.15 mg/kg): 27%

COc1ccc2c3c1O[C@H]1C(=O)CC[C@@]4(O)[C@@H](C2)N(C)CC[C@]314 [Oxycodone]
p of primary endpoint compared to the placebo group ([1]; oxycodone CR 20 mg twice daily group): 0.0154
Dose from which overlap with antinociceptive effect (comparators: also side-effects that impair measurement) ([4]; rat, IV): From 0.681 mg/kg: overlap with antinociceptive
% Inhibition of HA ([4]; rat, IV, dose 0.215 mg/kg): 18%
% Inhibition of HA ([4]; rat, IV, dose 0.681 mg/kg): 26%

COc1cccc(C2(O)CCCCC2CN(C)C)c1 (stereo not shown) [Tramadol, reference compound]
Decrease in pain intensity compared to baseline [2]: not observed
Dose from which overlap with antinociceptive effect (comparators: also side-effects that impair measurement) ([4]; rat, IV): From 4.64 mg/kg: overlap with antinociceptive
